Patent US20260286420A1, “REAGENT, KIT, METHOD FOR DETECTING ADP, AND USE THEREOF” (Neubo Apptech Co., Ltd., priority 2025, published 2026)

Assay: ATP-removal effect of ATPS and pyrophosphatase, luciferase readout
Format: biochemical
Settings: 100 μM ATP, 40 min at room temperature
Experimental: The ATP-removal effect of the reagent in Example 1 was verified.
ATP sulfurylase was prepared in the following buffer: 50 mM Tris-HCl buffer (pH 7.4)+10 mM MgCl2+20 mM Na2MoO4, where the concentration of each component is the final concentration in the resultant solution.
Reagent for ADP detection: 50 mM Tris-HCl buffer (pH 7.4)+20 mM MgSO4+50 mM KCl+2 mM EDTA+2 mM EGTA+0.1 mM D-luciferin+0.1 mM PEP-K (phosphoenolpyruvate monopotassium salt)+50 μg/mL luciferase+20 U/mL a pyruvate kinase, where the concentration of each component is the final concentration in the resultant solution.
The bioluminescence detection instrument was an EnVision (Perkin Elmer).
Next, 25 μL of ATP ([…]) was added to each well of a 96-well white opaque assay plate, followed by the addition of 25 μL of pyrophosphatase (PPA: 10 U/mL) and ATP sulfurylase (ATPS) at concentrations of 2 μg/mL, 1 μg/mL, and 0.5 μg/mL.
After incubation at room temperature (22° C.-25° C.) for 40 minutes, 50 μL of the reagent for ADP detection was added and mixed uniformly, and the fluorescence values were read after incubation was performed at room temperature for 10 minutes.
After 1 μM ATP+0.1 mM D-luciferin+50 μg/mL luciferase+50 mM Tris-HCl buffer (pH 7.4)+20 mM MgSO4 were incubated at room temperature for 10 minutes, the fluorescence value read was 439,640.
After 0.1 μM ATP+0.1 mM D-luciferin+50 μg/mL luciferase+50 mM Tris-HCl buffer (pH 7.4)+20 mM MgSO4 were incubated at room temperature for 10 minutes, the fluorescence value read was 47,720.
The remaining ATP after the action of ATPS and PPA was determined by comparing with the fluorescence values under conditions of ATP at 1 μM and 0.1 μM (see Table 2). It can be seen that the remaining ATP of 100 μM ATP under the action of ATPS (1 μg/mL) and pyrophosphatase was about 0.006%.

ATPS
Luminescence (RLU) (ATPS 0.5 μg/mL + PPA 10 U/mL): 3.44E+03 RLU | Remaining ATP (%) (ATPS 0.5 μg/mL + PPA 10 U/mL): 0.0072% | Luminescence (RLU) (ATPS 1 μg/mL + PPA 10 U/mL): 2.88E+03 RLU | Luminescence (RLU) (ATPS 2 μg/mL + PPA 10 U/mL): 2.24E+03 RLU | Remaining ATP (%) (ATPS 2 μg/mL + PPA 10 U/mL): 0.0047%
